Source: patent publication US8883833B2, “Substituted benzoazole PDE4 inhibitors for treating inflammatory, cardiovascular and CNS disorders” (Decode Genetics EHF, priority 2007, dated 2014)

Tests used:
h4B1 = h4B1 (Homo sapiens, UniProt Q07343); test: In-vitro assay for PDE4 enzymes, real-time enzyme-coupled spectrophotometric assay (Table 3); format: biochemical
Method: (§1) In-vitro assay for PDE4 enzymes. The in-vitro activity of PDE4 enzymes and the in-vitro potency of therapeutic agents described in the present invention was measured using a real-time, enzyme-coupled spectrophotometric assay. By using three different coupling enzymes, the product of the PDE4 reaction is coupled to the oxidation of the reduced form β-nicotinamide adenine dinucleotide (NADH), which dissipation can be monitored spectrophotmetrically at […]. Assay description. Buffer A containing 50 mM Tris, pH 8.0, 16 mM MgCl2 and 80 mM KCl is prepared and stored at room temperature. Buffer B containing 50 mM Tris, pH 8.0 is prepared and stored at toom temperature. Stock solutions of the following reagents are prepared in Buffer B and stored at −20° C.: Adenosine-5′-triphosphate (ATP), cyclic adenosine-5′-monophosphate (cAMP), phosphoenolpyruvate (PEP) and NADH. An assay mix is prepared by mixing Buffer A, […] (TCEP), ATP, PEP, NADH, myokinase (MK), pyruvate kinase (PK), lactate dehydroganese (LDH) and PDE4 to a final volume of 20 mL, which is enough for a single 96-well assay plate. Assay mix (180 μL) and test article (10 μL) in 1:1 DMSO/H2O mixture is pre-incubated at room temperature for 10 min. The enzymatic reaction is initiated by addition of cAMP (10 μL). Final concentration of all components in the assay (200 μL/well) are as follows: 10 mM MgCl2, 50 mM KCl, 5 mM TCEP, 2.5% DMSO, 0.4 mM NADH, 1 mM PEP, 0.04 mM ATP, 5 units MK, 1 unit PK, 1 unit LDH and appropriate amount of PDE4. Reaction progress curves are monitored in a plate reader capable of measuring light absorbance at 340 nm. A decrease in light absorbance at 340 nm is due to oxidation of NADH. Positive controls containing no test article and negative controls containing no test article and no cAMP are included on every assay plate. Reaction rates are determined from the slopes of the linear portions of the progress curves. All data is percent normalized with respect to controls and presented as percent inhibition.

h4D7 = h4D7 (Homo sapiens, UniProt Q08499); test: as above; format: biochemical
Method: as §1

[1] = tested on: rat model of Huntington's disease; details: cited from earlier work
mice = details: two separate studies in mice in vivo; cited from earlier work
human = human clinical trials; cited from earlier work
primates = details: cited from earlier work
rodent models = details: multiple rodent models; cited from earlier work
rats = details: cited from earlier work
[2] = tested on: patients suffering from asthma and COPD; details: cited from earlier work; for results of administration to patients: asthma and COPD patients, initial
rat model = rat model in vivo; cited from earlier work

Chain of h4B1 (Q07343 whole entry): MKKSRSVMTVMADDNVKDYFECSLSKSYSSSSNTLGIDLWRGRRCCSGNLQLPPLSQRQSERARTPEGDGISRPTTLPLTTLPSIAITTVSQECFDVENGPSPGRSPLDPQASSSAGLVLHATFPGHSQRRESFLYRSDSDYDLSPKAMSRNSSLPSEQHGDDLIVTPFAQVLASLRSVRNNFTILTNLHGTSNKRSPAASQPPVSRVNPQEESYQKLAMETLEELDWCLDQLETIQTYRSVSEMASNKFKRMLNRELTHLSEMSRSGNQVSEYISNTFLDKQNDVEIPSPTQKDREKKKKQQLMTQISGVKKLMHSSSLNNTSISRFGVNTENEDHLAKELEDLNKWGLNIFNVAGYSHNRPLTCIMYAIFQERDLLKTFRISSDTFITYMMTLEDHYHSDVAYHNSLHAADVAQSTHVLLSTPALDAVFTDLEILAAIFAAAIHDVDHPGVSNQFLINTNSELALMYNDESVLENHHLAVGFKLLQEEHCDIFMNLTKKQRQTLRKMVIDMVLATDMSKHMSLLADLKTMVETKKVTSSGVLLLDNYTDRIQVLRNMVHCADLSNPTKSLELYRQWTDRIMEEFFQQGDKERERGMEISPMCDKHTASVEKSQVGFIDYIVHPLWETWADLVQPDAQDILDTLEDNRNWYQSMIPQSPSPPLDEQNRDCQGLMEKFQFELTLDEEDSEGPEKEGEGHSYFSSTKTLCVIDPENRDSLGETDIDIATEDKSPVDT
Chain of h4D7 (Q08499 1-748 isoform Q08499-11): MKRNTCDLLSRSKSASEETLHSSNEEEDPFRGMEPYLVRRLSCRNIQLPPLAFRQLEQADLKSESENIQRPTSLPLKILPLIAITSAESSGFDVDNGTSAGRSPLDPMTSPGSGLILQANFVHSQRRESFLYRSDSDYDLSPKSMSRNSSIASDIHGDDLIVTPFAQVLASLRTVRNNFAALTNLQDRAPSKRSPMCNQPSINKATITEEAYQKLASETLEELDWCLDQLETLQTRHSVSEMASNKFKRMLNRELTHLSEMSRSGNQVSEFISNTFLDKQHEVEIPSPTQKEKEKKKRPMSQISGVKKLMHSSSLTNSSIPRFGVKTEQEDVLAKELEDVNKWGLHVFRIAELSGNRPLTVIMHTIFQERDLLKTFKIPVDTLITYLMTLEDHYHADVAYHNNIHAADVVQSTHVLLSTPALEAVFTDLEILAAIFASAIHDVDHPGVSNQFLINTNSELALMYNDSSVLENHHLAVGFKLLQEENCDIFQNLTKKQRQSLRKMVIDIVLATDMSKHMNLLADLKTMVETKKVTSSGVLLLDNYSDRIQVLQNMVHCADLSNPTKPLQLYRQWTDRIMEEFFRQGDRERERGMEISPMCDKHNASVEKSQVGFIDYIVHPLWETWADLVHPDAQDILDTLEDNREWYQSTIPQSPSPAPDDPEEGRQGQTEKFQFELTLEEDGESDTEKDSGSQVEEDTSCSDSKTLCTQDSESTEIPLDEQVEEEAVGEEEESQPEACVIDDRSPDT

Compound	IC50 (h4B1) [nM]	IC50 (h4D7) [nM]	further results
Nc1nc2c(-c3ccc4c(c3)OCO4)nc(Cc3ccc(F)cc3)nc2s1 [Example 11, 7-Benzo[1,3]dioxol-5-yl-5-(4-fluorobenzyl)-thiazolo[5,4-d]pyrimidin-2-ylamine]	1000 to 10000	< 1000	–
COc1ccc(C2CNC(=O)C2)cc1OC1CCCC1 (centres unmarked) [Rolipram]	–	–	neuroprotection [1]: neuroprotective effect; outcome in schizophrenia models (mice): improves the outcome; depression (human): ameliorate depression; cognition (primates): enhance cognition; cognition (rodent models): enhance cognition
Cc1nc2c(-c3cccc(Cl)c3)cc(Cc3ccc(NC(N)=O)cc3)cc2o1 [Example 24, N-(4-{[4-(3-chlorophenyl)-2-methyl-1,3-benzoxazol-6-yl]methyl}phenyl)urea]	< 1000	< 1000	–
Nc1nc2c(-c3cccc([N+](=O)[O-])c3)cc(Cc3ccc(F)cc3)cc2s1 [Example 1, 6-(4-fluorobenzyl)-4-(3-nitrophenyl)-benzothiazol-2-yl amine]	1000 to 10000	< 1000	–
Cn1nccc1Cc1cc(-c2ccc3c(c2)OCO3)c2nc(N)sc2c1 [Example 8, 4-Benzo[1,3]dioxol-5-yl-6-(2-methyl-2H-pyrazol-3-ylmethyl)-benzothiazol-2-ylamine]	1000 to 10000	< 1000	–
CS(=O)(=O)Nc1ccc(Cc2cc(-c3cccc(Cl)c3)c3nc(N)sc3c2)cc1 [Example 18, N-{4-[2-Amino-4-(3-chloro-phenyl)-benzothiazol-6-ylmethyl]-phenyl}-methanesulfonamide]	1000 to 10000	< 1000	–
Nc1ccc(Cc2cc(-c3cccc(Cl)c3)c3nc(N)sc3c2)cc1 [Example 26, 6-(4-Amino-benzyl)-4-(3-chloro-phenyl)-benzothiazol-2-ylamine]	< 1000	< 1000	–
CS(=O)(=O)Nc1ccc(Cc2cc3sc(N)nc3c(-c3cccc(Cl)c3)c2F)cc1 [Example 19, N-{4-[2-amino-4-(3-chloro-phenyl)-5-fluoro-benzothiazol-6-ylmethyl]-phenyl}-methanesulfonamide]	1000 to 10000	1000 to 10000	–
CCc1ccc2c(-c3cccc(Cl)c3)nc(=O)n(CC)c2n1 [YM976]	–	–	effects of experimentally-induced interstitial cystitis (rats): ameliorate the effects; frequency of urination (rats): decrease; volume of urine at each time of urination (rats): increase
Nc1nc2c(-c3cccc([N+](=O)[O-])c3)cc(Cn3ccnc3)cc2s1 [Example 2, 6-imidazol-1-ylmethyl-4-(3-nitro-phenyl)-benzothiazol-2-ylamine]	< 1000	< 1000	–
CCNC(=O)Nc1ccc(Cc2cc3scnc3c(-c3cccc(Cl)c3)c2F)cc1 [Example 30, 1-{4-[4-(3-chloro-phenyl)-5-fluoro-benzothiazol-6-ylmethyl]-phenyl}-3-ethyl-urea]	< 1000	< 1000	–
CCNC(=O)Nc1ccc(Cc2cc3scnc3c(-c3cccc(Cl)c3)c2F)cn1 [Example 33, 1-[5-[4-(3-chloro-phenyl)-5-fluoro-benzothiazol-6-ylmethyl]-pyridin-2-yl]-3-ethyl-urea]	< 1000	< 1000	–
Nc1ccc(Cc2cc(-c3cccc(Cl)c3)c3ncsc3c2)cc1 [Example 25, 4-[4-(3-Chloro-phenyl)-benzothiazol-6-ylmethyl]-phenylamine]	< 1000	< 1000	–
COc1ccc([C@]2(C#N)CC[C@@H](C(=O)O)CC2)cc1OC1CCCC1 [cilomilast]	–	–	results of administration to patients [2]: initially excellent results; effect on long-term trial ([2]; long-term trial): disappeared
Cc1noc(/C(=C/c2cccc(-c3cc(C(C)(C)S(C)(=O)=O)cc4cccnc34)c2)c2ccc(S(C)(=O)=O)cc2)n1 [L-454,560]	–	–	learning (rat model): improve learning
Cc1nc2c(-c3cccc(Cl)c3)cc(Cc3ccc(N)cc3)cc2o1 [Example 22, 4-{[4-(3-chlorophenyl)-2-methyl-1,3-benzoxazol-6-yl]methyl}aniline]	< 1000	< 1000	–
O=C(Nc1c(Cl)cncc1Cl)c1ccc(OC(F)F)c(OCC2CC2)c1 [roflumilast]	–	–	results of administration to patients [2]: initially excellent results

Continued, in another order:

IC50 (h4B1) [nM]	IC50 (h4D7) [nM]	Compound	further results
1000 to 10000	< 1000	CC(=O)c1cccc(-c2cc(Cn3cccn3)cc3sc(N)nc23)c1 [Example 12, 1-[3-(2-Amino-6-pyrazol-1-ylmethyl-benzothiazol-4-yl)-phenyl]-ethanone]	–
< 1000	< 1000	Nc1ccc(Cc2cc(-c3cccc(Cl)c3)c3nc(N)oc3c2)cc1 [Example 32, 6-(4-aminobenzyl)-4-(3-chlorophenyl)-1,3-benzoxazol-2-amine]	–
10000 to 20000	1000 to 10000	CC(=O)N1CCN(Cc2cc3scnc3c(-c3cccc(Cl)c3)c2F)CC1 [Example 44, 1-{4-[4-(3-Chloro-phenyl)-5-fluoro-benzothiazol-6-ylmethyl]-piperazin-1-yl}-ethanone]	–
10000 to 20000	1000 to 10000	Cn1nccc1C(O)c1cc(-c2ccc3c(c2)OCO3)c2nc(N)sc2c1 (centres unmarked) [Example 6, (2-Amino-4-benzo[1,3]dioxol-5-yl-benzothiazol-6-yl)-(2-methyl-2H-pyrazol-3-yl)-methanol]	–
1000 to 10000	< 1000	Nc1nc2c(-c3ccc4c(c3)OCO4)cc(Cc3ccc(F)cc3)cc2s1 [Example 4, 4-Benzo[1,3]dioxol-5-yl-6-(4-fluoro-benzyl)-benzothiazol-2-ylamine]	–
1000 to 10000	1000 to 10000	Nc1nc2c(-c3ccc4c(c3)OCO4)cc(Cn3cccn3)cc2s1 [Example 9, 4-Benzo[1,3]dioxol-5-yl-6-pyrazol-1-ylmethyl-benzothiazol-2-ylamine]	–
1000 to 10000	< 1000	CS(=O)(=O)Nc1ccc(Cc2cc(-c3cccc(Cl)c3)c3nc(N)oc3c2)cc1 [Example 20, N-{4-[2-Amino-4-(3-chloro-phenyl)-benzooxazol-6-ylmethyl]-phenyl}-methanesulfonamide]	–
1000 to 10000	< 1000	Nc1nc2c(-c3ccc4nonc4c3)cc(Cc3ccc(F)cc3)cc2s1 [Example 3, 4-Benzol[1,2,5]oxadiazol-5-yl-6-(4-fluoro-benzyl)-benzothiazol-2-yl amine]	–
1000 to 10000	< 1000	CCOC(=O)NC1CCN(Cc2cc3scnc3c(-c3cccc(Cl)c3)c2F)CC1 [Example 45, {1-[4-(3-Chloro-phenyl)-5-fluoro-benzothiazol-6-ylmethyl]-piperidin-4-yl}-carbamic acid ethyl ester]	–
1000 to 10000	< 1000	CSc1cccc(-c2cc(Cn3cccn3)cc3sc(N)nc23)c1 [Example 14, 4-(3-Methylsulfanyl-phenyl)-6-pyrazol-1-ylmethyl-benzothiazol-2-ylamine]	–
< 1000	< 1000	Nc1ccc(Cc2cc3sc(N)nc3c(-c3cccc([N+](=O)[O-])c3)c2O)cc1 [Example 15, 2-Amino-6-(4-amino-benzyl)-4-(3-nitro-phenyl)-benzothiazol-5-ol]	–
< 1000	< 1000	NC(=O)Nc1ccc(Cc2cc3sc(N)nc3c(-c3cccc(Cl)c3)c2F)cc1 [Example 21, {4-[2-amino-4-(3-chloro-phenyl)-5-fluoro-benzothiazol-6-ylmethyl]-phenyl}-urea]	–
< 1000	< 1000	NC(=O)N1CCN(Cc2cc3scnc3c(-c3cccc(Cl)c3)c2F)CC1 [Example 31, 4-[4-(3-Chloro-phenyl)-5-fluoro-benzothiazol-6-ylmethyl]-piperazine-1-carboxylic acid amide]	–
